How the values were obtained:
Format in all cases: in vivo
[1] = tested on: Plutella xylostella (Diamond Back Moth); assay: Activity against Plutella xylostella (diamond back moth), artificial diet; details: 192 h, application rate of 200 ppm, eggs, 8 days after infestation, read-out: effect in at least one of the two categories (mortality or growth inhibition)
Procedure: 24-well microtiter plates with artificial diet were treated with aqueous test solutions prepared from 10′000 ppm DMSO stock solutions by pipetting. After drying, Plutella eggs were pipetted through a plastic stencil onto a gel blotting paper and the plate was closed with it. The samples were assessed for mortality and growth inhibition in comparison to untreated samples 8 days after infestation.

[2] = tested on: Diabrotica Balteata (Corn Root Worm); assay: Activity against Diabrotica balteata (corn root worm), maize sprouts sprayed; details: 96 h, application rate of 200 ppm, L2 larvae, 4 days after infestation, read-out: effect in at least one of the two categories (mortality or growth inhibition)
Procedure: Maize sprouts placed onto an agar layer in 24-well microtiter plates were treated with aqueous test solutions prepared from 10′000 ppm DMSO stock solutions by spraying. After drying, the plates were infested with L2 larvae (6 to 10 per well). The samples were assessed for mortality and growth inhibition in comparison to untreated samples 4 days after infestation.

[3] = tested on: Chilo suppressalis (Striped Rice Stemborer); assay: Activity against Chilo suppressalis (striped rice stemborer), artificial diet; details: 144 h, application rate of 200 ppm, L2 larvae, 6 days after infestation, read-out: control (mortality, anti-feeding effect, growth inhibition)
Procedure: 24-well microtiter plates with artificial diet were treated with aqueous test solutions prepared from 10′000 ppm DMSO stock solutions by pipetting. After drying, the plates were infested with L2 larvae (6-8 per well). The samples were assessed for mortality, anti-feeding effect, and growth inhibition in comparison to untreated samples 6 days after infestation. Control of Chilo suppressalis by a test sample is given when at least one of the categories mortality, anti-feedant effect, and growth inhibition is higher than the untreated sample.

[4] = tested on: Euschistus heros (Neotropical Brown Stink Bug); assay: Activity against Euschistus heros (neotropical brown stink bug), soybean leaves sprayed; details: 120 h, application rate of 200 ppm, N2 nymphs, 5 days after infestation, read-out: effect in at least one of the two categories (mortality or growth inhibition)
Procedure: Soybean leaves on agar in 24-well microtiter plates were sprayed with aqueous test solutions prepared from 10′000 ppm DMSO stock solutions. After drying the leaves were infested with N2 nymphs. The samples were assessed for mortality and growth inhibition in comparison to untreated samples 5 days after infestation.

[5] = tested on: Spodoptera littoralis (Egyptian Cotton Leaf Worm); assay: Activity against Spodoptera littoralis (Egyptian cotton leaf worm), cotton leaf discs sprayed; details: foliar, 72 h, application rate of 200 ppm, L1 larvae, 3 days after infestation, read-out: control (mortality, anti-feeding effect, growth inhibition)
Procedure: Cotton leaf discs were placed onto agar in 24-well microtiter plates and sprayed with aqueous test solutions prepared from 10′000 ppm DMSO stock solutions. After drying the leaf discs were infested with five L1 larvae. The samples were assessed for mortality, anti-feeding effect, and growth inhibition in comparison to untreated samples 3 days after infestation. Control of Spodoptera littoralis by a test sample is given when at least one of the categories mortality, anti-feedant effect, and growth inhibition is higher than the untreated sample.

[6] = tested on: Carpocapsa (Cydia) Pomonella (Codling Moth); assay: Activity against Carpocapsa (Cydia) pomonella (codling moth), larvicide, feeding/contact; details: 336 h, application rate of 12.5 ppm, L1 larvae, 14 days after infestation, read-out: effect in at least one of the two categories (mortality or growth inhibition)
Procedure: Diet cubes coated with paraffin were sprayed with diluted test solutions in an application chamber. After drying off the treated cubes (10 replicates) were infested with 1 L1 larvae. Samples were incubated at 26-27° C. and checked 14 days after infestation for mortality and growth inhibition. The following compounds gave an effect of at least 80% in at least one of the two categories (mortality or growth inhibition) at an application rate of 12.5 ppm: P1, P2, P3, P5, P9, P10, P11, P12, P14, P17, P19, P20, P21, P23, P24, P30, P31.

[7] = tested on: Myzus persicae (Green Peach Aphid); assay: Activity against Myzus persicae (green peach aphid), feeding/contact activity; details: 144 h, application rate of 200 ppm, mixed ages, 6 days after infestation
Procedure: Sunflower leaf discs were placed onto agar in a 24-well microtiter plate and sprayed with aqueous test solutions prepared from 10′000 ppm DMSO stock solutions. After drying, the leaf discs were infested with an aphid population of mixed ages. The samples were assessed for mortality 6 days after infestation.

[8] = tested on: Nilaparvata lugens (Brown Plant Hopper); assay: Activity against Nilaparvata lugens (brown plant hopper), larvicide, systemic into water; details: 168 h, application rate of 12.5 ppm, N3 nymphs, 7 days after infestation
Procedure: Larvicide, systemic into water Rice plants cultivated in a nutritive solution were treated with the diluted test solutions into nourishing cultivation system. 1 day after application plants were infested with ˜20 N3 nymphs. 7 days after infestation samples were assessed for mortality and growth regulation.

CCSc1cc(NC)cnc1-c1cc2c(cn1)N(CC(F)(F)C(F)(F)F)C(=O)OC2 [P28, 6-[3-ethylsulfanyl-5-(methylamino)-2-pyridyl]-1-(2,2,3,3,3-pentafluoropropyl)-4H-pyrido[3,4-d][1,3]oxazin-2-one]
≥ 80%: percent effect (mortality or growth inhibition) at 200 ppm [1]

CCSc1cc(C2(C#N)CC2)cnc1-c1cc2c(cn1)N(CC(F)(F)F)C(=O)OC2 [P35, 1-[5-ethylsulfanyl-6-[2-oxo-1-(2,2,2-trifluoroethyl)-4H-pyrido[3,4-d][1,3]oxazin-6-yl]-3-pyridyl]cyclopropanecarbonitrile]
≥ 80%: percent effect (mortality or growth inhibition) at 200 ppm [2] | percent effect (mortality or growth inhibition) at 200 ppm [1]

CCS(=O)(=O)c1cc(Oc2ccccn2)cnc1-c1cc2c(cn1)N(CC(F)(F)C(F)(F)F)C(=O)CC2 [P21, 6-[3-ethylsulfonyl-5-(2-pyridyloxy)-2-pyridyl]-1-(2,2,3,3,3-pentafluoropropyl)-3,4-dihydro-1,7-naphthyridin-2-one]
≥ 80%: mortality at 200 ppm [3] | percent effect (mortality or growth inhibition) at 200 ppm [2] | percent effect (mortality or growth inhibition) at 200 ppm [4] | percent effect (mortality or growth inhibition) at 200 ppm [1] | mortality at 200 ppm [5] | percent effect (mortality or growth inhibition) at 12.5 ppm [6]

CCSc1cc(C2(C#N)CC2)cnc1-c1cc2c(cn1)N(CC(F)(F)F)C(=O)CC2 [P6, 1-[5-ethylsulfanyl-6-[2-oxo-1-(2,2,2-trifluoroethyl)-3,4-dihydro-1,7-naphthyridin-6-yl]-3-pyridyl]cyclopropanecarbonitrile]
≥ 80%: mortality at 200 ppm [3] | percent effect (mortality or growth inhibition) at 200 ppm [2] | percent effect (mortality or growth inhibition) at 200 ppm [4] | percent effect (mortality or growth inhibition) at 200 ppm [1] | mortality at 200 ppm [5]

CCSc1cc(N(C)C(C)=O)cnc1-c1cc2c(cn1)N(CC(F)(F)C(F)(F)F)C(=O)OC2 [P29, N-[5-ethylsulfanyl-6-[2-oxo-1-(2,2,3,3,3-pentafluoropropyl)-4H-pyrido[3,4-d][1,3]oxazin-6-yl]-3-pyridyl]-N-methyl-acetamide]
≥ 80%: mortality at 200 ppm [3] | mortality at 200 ppm [7] | percent effect (mortality or growth inhibition) at 200 ppm [1] | mortality at 200 ppm [5]

CCSc1cc(OCC(C)(F)F)cnc1-c1cc2c(cn1)N(CC(F)(F)C(F)(F)F)C(=O)OC2 [P27, 6-[5-(2,2-difluoropropoxy)-3-ethylsulfanyl-2-pyridyl]-1-(2,2,3,3,3-pentafluoropropyl)-4H-pyrido[3,4-d][1,3]oxazin-2-one]
≥ 80%: mortality at 200 ppm [3] | percent effect (mortality or growth inhibition) at 200 ppm [2] | percent effect (mortality or growth inhibition) at 200 ppm [4] | percent effect (mortality or growth inhibition) at 200 ppm [1] | mortality at 200 ppm [5]

CC[S+]([O-])c1cc(OCC(C)(F)F)cnc1-c1cc2c(cn1)N(CC(F)(F)C(F)(F)F)C(=O)OC2 (centres unmarked) [P32, 6-[5-(2,2-difluoropropoxy)-3-ethylsulfinyl-2-pyridyl]-1-(2,2,3,3,3-pentafluoropropyl)-4H-pyrido[3,4-d][1,3]oxazin-2-one]
≥ 80%: percent effect (mortality or growth inhibition) at 200 ppm [2] | percent effect (mortality or growth inhibition) at 200 ppm [1] | mortality at 200 ppm [5]

CCS(=O)(=O)c1cc(C2CC2)cnc1-c1cc2c(cn1)N(CC(F)(F)C(F)(F)F)C(=O)CC2 [P19, 6-(5-cyclopropyl-3-ethylsulfonyl-2-pyridyl)-1-(2,2,3,3,3-pentafluoropropyl)-3,4-dihydro-1,7-naphthyridin-2-one]
≥ 80%: mortality at 200 ppm [3] | percent effect (mortality or growth inhibition) at 200 ppm [2] | percent effect (mortality or growth inhibition) at 200 ppm [1] | mortality at 200 ppm [5] | percent effect (mortality or growth inhibition) at 12.5 ppm [6] | mortality at 12.5 ppm [8]

CCSc1cc(C(C)(C)C#N)cnc1-c1cc2c(cn1)N(CC(F)(F)C(F)(F)F)C(=O)OC2 [P33, 2-[5-ethylsulfanyl-6-[2-oxo-1-(2,2,3,3,3-pentafluoropropyl)-4H-pyrido[3,4-d][1,3]oxazin-6-yl]-3-pyridyl]-2-methyl-propanenitrile]
≥ 80%: mortality at 200 ppm [3] | percent effect (mortality or growth inhibition) at 200 ppm [2] | percent effect (mortality or growth inhibition) at 200 ppm [4]

CCSc1cc(OCC(C)(F)F)cnc1-c1cc2c(cn1)N(CC(F)(F)C(F)(F)F)C(=O)CC2 [P25, 6-[5-(2,2-difluoropropoxy)-3-ethylsulfanyl-2-pyridyl]-1-(2,2,3,3,3-pentafluoropropyl)-3,4-dihydro-1,7-naphthyridin-2-one]
≥ 80%: mortality at 200 ppm [3] | percent effect (mortality or growth inhibition) at 200 ppm [2] | percent effect (mortality or growth inhibition) at 200 ppm [1] | mortality at 200 ppm [5]

CCS(=O)(=O)c1cc(-n2ccc(Cl)n2)cnc1-c1cc2c(cn1)N(CC(F)(F)C(F)(F)F)C(=O)CC2 [P5, 6-[5-(3-chloropyrazol-1-yl)-3-ethylsulfonyl-2-pyridyl]-1-(2,2,3,3,3-pentafluoropropyl)-3,4-dihydro-1,7-naphthyridin-2-one]
≥ 80%: mortality at 200 ppm [3] | percent effect (mortality or growth inhibition) at 200 ppm [2] | percent effect (mortality or growth inhibition) at 200 ppm [4] | percent effect (mortality or growth inhibition) at 200 ppm [1] | mortality at 200 ppm [5] | percent effect (mortality or growth inhibition) at 12.5 ppm [6]

CCS(=O)(=O)c1cc(OCC(C)(F)F)cnc1-c1cc2c(cn1)N(CC(F)(F)C(F)(F)F)C(=O)OC2 [P31, 6-[5-(2,2-difluoropropoxy)-3-ethylsulfonyl-2-pyridyl]-1-(2,2,3,3,3-pentafluoropropyl)-4H-pyrido[3,4-d][1,3]oxazin-2-one]
≥ 80%: mortality at 200 ppm [3] | percent effect (mortality or growth inhibition) at 200 ppm [2] | percent effect (mortality or growth inhibition) at 200 ppm [1] | mortality at 200 ppm [5] | percent effect (mortality or growth inhibition) at 12.5 ppm [6] | mortality at 12.5 ppm [8]

CCS(=O)(=O)c1ccc(-n2cncn2)nc1-c1cc2c(cn1)N(CC(F)(F)C(F)(F)F)C(=O)CC2 [P13, 6-[3-ethylsulfonyl-6-(1,2,4-triazol-1-yl)-2-pyridyl]-1-(2,2,3,3,3-pentafluoropropyl)-3,4-dihydro-1,7-naphthyridin-2-one]
≥ 80%: mortality at 200 ppm [3] | percent effect (mortality or growth inhibition) at 200 ppm [2] | mortality at 200 ppm [7] | percent effect (mortality or growth inhibition) at 200 ppm [1] | mortality at 200 ppm [5]

CCS(=O)(=O)c1ccc(-n2cncn2)nc1-c1cc2c(cn1)N(CC(F)(F)C(F)(F)F)C(=O)OC2 [P16, 6-[3-ethylsulfonyl-6-(1,2,4-triazol-1-yl)-2-pyridyl]-1-(2,2,3,3,3-pentafluoropropyl)-4H-pyrido[3,4-d][1,3]oxazin-2-one]
≥ 80%: mortality at 200 ppm [3] | percent effect (mortality or growth inhibition) at 200 ppm [2] | mortality at 200 ppm [7] | percent effect (mortality or growth inhibition) at 200 ppm [1] | mortality at 200 ppm [5]

CCSc1cc(C(F)(F)F)cnc1-c1cc2c(cn1)N(CC(F)(F)C(F)(F)F)C(=O)OC2 [P26, 6-[3-ethylsulfanyl-5-(trifluoromethyl)-2-pyridyl]-1-(2,2,3,3,3-pentafluoropropyl)-4H-pyrido[3,4-d][1,3]oxazin-2-one]
≥ 80%: mortality at 200 ppm [3] | percent effect (mortality or growth inhibition) at 200 ppm [2] | percent effect (mortality or growth inhibition) at 200 ppm [1]

CCSc1cc(N(C)C(C)=O)cnc1-c1cc2c(cn1)N(CC(F)(F)C(F)(F)F)C(=O)CC2 [P7, N-[5-ethylsulfanyl-6-[2-oxo-1-(2,2,3,3,3-pentafluoropropyl)-3,4-dihydro-1,7-naphthyridin-6-yl]-3-pyridyl]-N-methyl-acetamide]
≥ 80%: mortality at 200 ppm [7]

Source: patent publication US20240122182A1, “PESTICIDALLY ACTIVE HETEROCYCLIC DERIVATIVES WITH SULFUR CONTAINING SUBSTITUENTS” (SYNGENTA CROP PROTECTION AG, priority 2021, published 2024)
